Where a name gives a salt, the structure may show the parent alone.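 Dose response: 5 concentrations. Exposure: 48 h. Format: 96-well plates. Endpoint: linear interpolation; highest concentration if not reached. The concentration for 50% growth inhibition is given as GI50.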 Activity calls are given as the source filed them. Rule as the data show it: active = GI50 up to about 1.1 µM and inactive = higher.
Key:
Experiment in all cases: inhibition of tumour cell growth, NCI panel, 48 h
CCRF-CEM = test system: CCRF-CEM
HCT-116 = test system: HCT-116
HT-29 = test system: HT-29
KM12 = test system: KM12
LOX IMVI = test system: LOX IMVI
NCI-H226 = test system: NCI-H226
NCI-H23 = test system: NCI-H23
OVCAR-3 = test system: OVCAR-3
RPMI-8226 = test system: RPMI-8226
SR = test system: SR
UO-31 = test system: UO-31
TK-10 = test system: TK-10
UACC-257 = test system: UACC-257
UACC-62 = test system: UACC-62
RXF 393 = test system: RXF 393

| Compound | GI50 (CCRF-CEM) | GI50 (HCT-116) | GI50 (HT-29) | GI50 (KM12) | GI50 (LOX IMVI) | GI50 (NCI-H226) | GI50 (NCI-H23) | GI50 (OVCAR-3) | GI50 (RPMI-8226) | GI50 (SR) | GI50 (UO-31) | GI50 (TK-10) | GI50 (UACC-257) | GI50 (UACC-62) | GI50 (RXF 393) |
| --- | --- | --- | --- | --- | --- | --- | --- | --- | --- | --- | --- | --- | --- | --- | --- |
| CC1CC2C(=O)NC(=O)C2c2[nH]c3ccccc3c21 (stereo not drawn) | > 100 µM (inactive) | > 100 µM (inactive) | > 100 µM (inactive) | > 100 µM (inactive) | > 100 µM (inactive) | 67.1 µM (inactive) | > 100 µM (inactive) | 96.2 µM (inactive) | > 100 µM (inactive) | > 100 µM (inactive) | 71.4 µM (inactive) |  |  |  |  |
| CSc1nc(Cl)c(Br)c(Sc2nc(N)nc3nc[nH]c23)n1 | 2.77 µM (inactive) | 2.84 µM (inactive) | 9.86 µM (inactive) | 5.18 µM (inactive) |  | 10.5 µM (inactive) | 10.4 µM (inactive) | 15.2 µM (inactive) | 2.25 µM (inactive) | 3.48 µM (inactive) | 5.01 µM (inactive) | 6.79 µM (inactive) | 13.9 µM (inactive) | 3.52 µM (inactive) |  |
| CC1CC2(CCC1OCc1ccccc1)OCCO2 (stereo not drawn) | > 100 µM (inactive) | > 100 µM (inactive) | > 100 µM (inactive) | > 100 µM (inactive) | > 100 µM (inactive) |  | > 100 µM (inactive) | > 100 µM (inactive) | > 100 µM (inactive) |  | > 100 µM (inactive) | > 100 µM (inactive) | > 100 µM (inactive) | > 100 µM (inactive) | > 100 µM (inactive) |
| CC(=O)O[C@H]1CCC2[C@@H]3CCC4Nc5[nH]ncc5C[C@]4(C)C3CC[C@@]21C (stereo partly drawn) | 22.4 µM (inactive) | 64.9 µM (inactive) | 45.3 µM (inactive) | 64.1 µM (inactive) | 0.405 µM (active) | > 100 µM (inactive) | 61.2 µM (inactive) | 32.4 µM (inactive) | 31.9 µM (inactive) |  | > 100 µM (inactive) | 74.6 µM (inactive) | 22.4 µM (inactive) | 18.9 µM (inactive) | > 100 µM (inactive) |
| CC(NC(C)(C)C)C(=O)c1cccc(Cl)c1 (stereo not drawn) [BUPROPION HYDROCHLORIDE] | > 100 µM (inactive) | > 100 µM (inactive) | > 100 µM (inactive) | > 100 µM (inactive) | > 100 µM (inactive) |  | > 100 µM (inactive) | > 100 µM (inactive) | > 100 µM (inactive) |  |  | > 100 µM (inactive) | > 100 µM (inactive) | > 100 µM (inactive) | > 100 µM (inactive) |
| CCOC(=O)N1CCN(P(=O)(Nc2ccc3[nH]c(NC(=O)OC)nc3c2)Oc2ccccc2)CC1 (stereo not drawn) | 86.1 µM (inactive) | > 100 µM (inactive) | > 100 µM (inactive) | > 100 µM (inactive) | > 100 µM (inactive) | > 100 µM (inactive) | > 100 µM (inactive) | 50.7 µM (inactive) | 81.8 µM (inactive) |  | > 100 µM (inactive) | > 100 µM (inactive) | > 100 µM (inactive) | 51.1 µM (inactive) | > 100 µM (inactive) |
| Cc1nc2c(n1CCO)C(=O)c1ccccc1C2=O | 27.4 µM (inactive) | 18.9 µM (inactive) | 25.9 µM (inactive) | 37.7 µM (inactive) | 23.4 µM (inactive) | > 100 µM (inactive) | 15 µM (inactive) | 24.3 µM (inactive) |  | 26.4 µM (inactive) | > 100 µM (inactive) | > 100 µM (inactive) | 16.6 µM (inactive) | 16.5 µM (inactive) | 33.7 µM (inactive) |
| Nn1c(-c2cccc(Cl)c2)nc2ccccc2c1=O | 51.5 µM (inactive) | > 100 µM (inactive) | > 100 µM (inactive) | > 100 µM (inactive) |  | > 100 µM (inactive) | > 100 µM (inactive) | > 100 µM (inactive) | > 100 µM (inactive) |  | > 100 µM (inactive) | > 100 µM (inactive) | > 100 µM (inactive) | > 100 µM (inactive) |  |
| CN(C)C(=S)/N=c1\ssc(=S)n1C1CCCCC1 | 0.23 µM (active) | 16.5 µM (inactive) | 35.7 µM (inactive) | 35.7 µM (inactive) |  | 52.5 µM (inactive) | 44 µM (inactive) |  |  | 20.5 µM (inactive) | 61.1 µM (inactive) | > 100 µM (inactive) | 22.4 µM (inactive) | 10.4 µM (inactive) | 33.3 µM (inactive) |
| CNC(=O)NCCCCC(NC(C)=O)C(=O)NCc1ccccc1 (stereo not drawn) | > 100 µM (inactive) | > 100 µM (inactive) | > 100 µM (inactive) | > 100 µM (inactive) | > 100 µM (inactive) | > 100 µM (inactive) | > 100 µM (inactive) | > 100 µM (inactive) | > 100 µM (inactive) |  | > 100 µM (inactive) | > 100 µM (inactive) | > 100 µM (inactive) | > 100 µM (inactive) | > 100 µM (inactive) |
| CC(=O)OCC(OC(C)=O)C(OC(C)=O)C(OC(C)=O)C(=O)CNn1c(-c2ccccc2Cl)nc2ccccc2c1=O (stereo not drawn) | 84.3 µM (inactive) | > 100 µM (inactive) | > 100 µM (inactive) | > 100 µM (inactive) | > 100 µM (inactive) | > 100 µM (inactive) | > 100 µM (inactive) | > 100 µM (inactive) | 76 µM (inactive) | 61.9 µM (inactive) | > 100 µM (inactive) |  | > 100 µM (inactive) | > 100 µM (inactive) | > 100 µM (inactive) |
| CC(=O)CC(=O)OC1CC(C)CCC1C(C)C (stereo not drawn) | 11.7 µM (inactive) | 13.5 µM (inactive) | 30 µM (inactive) | 37.8 µM (inactive) | 47.6 µM (inactive) |  | 96.8 µM (inactive) | 26 µM (inactive) | 15 µM (inactive) |  | > 100 µM (inactive) | > 100 µM (inactive) | 77.4 µM (inactive) | 69.2 µM (inactive) | 72.4 µM (inactive) |
| Nc1ccc(C(=O)CC2(O)C(=O)Nc3ccccc32)cc1 (stereo not drawn) |  | > 100 µM (inactive) | > 100 µM (inactive) |  | > 100 µM (inactive) | > 100 µM (inactive) | > 100 µM (inactive) | > 100 µM (inactive) | > 100 µM (inactive) |  | > 100 µM (inactive) | > 100 µM (inactive) | > 100 µM (inactive) | > 100 µM (inactive) | > 100 µM (inactive) |
| C[n+]1cc(C(O)c2ccc3c(c2)OCO3)c2ccccc2c1 (stereo not drawn) | 29.9 µM (inactive) | 28.4 µM (inactive) | 51.2 µM (inactive) | 38.3 µM (inactive) | 46 µM (inactive) | 20.6 µM (inactive) |  | 28.8 µM (inactive) | 13.9 µM (inactive) |  | 16.6 µM (inactive) | 36.8 µM (inactive) | 18.6 µM (inactive) | 22.9 µM (inactive) | 14.1 µM (inactive) |
| CCOC(=O)C1=C(C)CC2C(=O)OC(=O)C2C1(C)C (stereo not drawn) | > 100 µM (inactive) |  | > 100 µM (inactive) | > 100 µM (inactive) |  | > 100 µM (inactive) | > 100 µM (inactive) | > 100 µM (inactive) | > 100 µM (inactive) | > 100 µM (inactive) | > 100 µM (inactive) | > 100 µM (inactive) | > 100 µM (inactive) |  | > 100 µM (inactive) |

Reference: ChEMBL document CHEMBL1201862, “PubChem BioAssay data set” (2004)
